Read-outs that look alike come from different tables or passages of the source.
What was measured:
[1] = Phase 1 single-dose and multiple-dose pharmacokinetics in healthy volunteers; format: in vivo, Humans; details: for half-life / Tmax: human, oral; for Tmax: read-out: median Tmax
Method: In a Phase 1, randomized, double-blind, placebo-controlled, single-dose and multiple-dose clinical study, a total of 46 healthy volunteers were assigned to one of six dose groups (1 mg, 4 mg, 10 mg, 20 mg, 30 mg, 50 mg) in a single-dose phase. In each dose group, 2 volunteers received a matching placebo. In the 1 mg dose group, 4 volunteers received a single dose of Comp-1 and in the remaining dose groups, 6 volunteers each received a single dose of Comp-1. Blood samples were collected from volunteers within 1 hour before dosing and at 0.5, 1, 1.5, 2, 3, 4, 5, 6, 7, 8, 10, 12, 24, 48, and 72 hours after dosing for pharmacokinetic (PK) analysis.
A total of 32 healthy volunteers were assigned to one of four dose groups (4 mg, 10 mg, 20 mg, 30 mg) in a multiple-dose phase. In each dose group, 2 volunteers received a matching placebo and 6 volunteers received Comp-1 once daily for 10 consecutive days. Blood samples for PK analysis were collected from volunteers within 1 hour before dosing and at 0.5, 1, 1.5, 2, 3, 4, 5, 6, 7, 8, 10, 12, and 24 hours after dosing on the first dosing day (i.e., Day 1), as well as within 1 hour before dosing and at 0.5, 1, 2, 3, 4, 5, 6, 7, 8, 10, 12, 24, 48, and 72 hours after dosing on Days 6, 7, 8, and 10.

[2] = test system: patients with chronic kidney disease anemia; assay: Phase 2 clinical trial in patients with chronic kidney disease anemia (hemoglobin, adverse events); format: in vivo, human; details: for mean rate of hemoglobin increase: end of dose-fixing period (5 weeks); for mean hemoglobin level: Weeks 6-14 (entire titration period); for cumulative percentage of patients achieving target hemoglobin range 10.0-11.0 g/dL and increase of ≥1.0 g/dL from baseline: entire 13-week treatment period; for TEAE, % of patients / TEAE, NE (total number of adverse events) / TEAE, n (number of patients experiencing adverse events) / Treatment-related TEAE, % of patients / Treatment-related TEAE, NE (total number of adverse events) / Treatment-related TEAE, n (number of patients experiencing adverse events): titration period
Method: A Phase 2, randomized, double-blind, placebo-controlled clinical study of Comp-1 in patients with chronic kidney disease anemia included a total treatment period of 13 weeks, divided into an initial 5-week dose-fixing period and a subsequent 8-week dose adjustment period (also referred to as the titration period). A total of 113 patients with renal anemia were initially randomized into the dose-fixing period. During the dose-fixing period, patients with renal anemia received Comp-1 8 mg, 12 mg, or 16 mg three times weekly (TIW), or a matching placebo. At the Week 6 study visit, a total of 44 eligible patients underwent a second randomization into the dose adjustment period (titration period). […] The starting dose in this phase was the same as the dose during the dose-fixing period and could be adjusted based on weekly hemoglobin values to maintain hemoglobin within the target range of 10.0-11.0 g/dL, inclusive. To maintain blinding, patients in the placebo group underwent pseudo-randomization and continued to receive matching placebo. During the study, patients were visited weekly to measure the primary efficacy indicator, i.e. hemoglobin level, and safety comparisons were made for patients entering the titration period according to dosing frequency (three times weekly (TIW) dosing vs. once weekly (QW) dosing).
The primary efficacy objective of the study was to compare the mean rate of hemoglobin increase (g/dL/week) at the end of the dose-fixing period (i.e., after 5 weeks of dosing) between the three Comp-1 dose groups and the placebo group. […] In the analysis of hemoglobin during the adjustment period (titration period), at Week 14 (i.e., at the end of the titration period or after 13 weeks of dosing), the mean levels of hemoglobin in the pooled Comp-1 TIW group and QW group were 10.74 g/dL and 10.09 g/dL, respectively, both maintained within the study target range of 10.0-11.0 g/dL inclusive, while the mean level of hemoglobin in the placebo group was 9.57 g/dL. During the later part of the adjustment period (titration period), i.e., Weeks 10-14, the mean levels of hemoglobin were >10.0 g/dL in all dose frequency groups including the placebo group: 10.73 g/dL and 10.77 g/dL in the pooled Comp-1 TIW and QW groups, respectively, and 10.26 g/dL in the placebo group. The change in hemoglobin level from baseline was 1.60 g/dL and 1.63 g/dL in the pooled Comp-1 TIW and QW groups, respectively, and 0.48 g/dL in the placebo group. […] In the analysis of hemoglobin throughout the entire adjustment period (titration period), i.e., Weeks 6-14, the mean hemoglobin levels in the pooled Comp-1 TIW and QW groups were 10.84 g/dL and 10.91 g/dL, respectively, compared to 10.23 g/dL in the placebo group. […] Throughout the entire 13-week treatment period, the cumulative percentage of patients achieving the target hemoglobin range of 10.0-11.0 g/dL inclusive and an increase of ≥1.0 g/dL from baseline was similar between the pooled Comp-1 TIW and QW groups: 100% and 90%, respectively, compared to 40% in the placebo group. Table 3 below provides a safety comparison for patients entering the titration period according to dosing frequency.
TEAE: treatment emergent adverse event; Treatment-related TEAE: treatment emergent adverse event considered related to treatment; N: number of patients; NE: total number of adverse events occurring; n: number of patients experiencing adverse events.

[3] = after 10 consecutive days of dosing
[4] = multiple-dose phase, after the first dose

exposure (Css,max, AUC0-t, AUC0-t, and AUC0-inf) [1, 3]: increased in a dose-proportional manner
mean clearance (CL/F) [1, 3]: no dose-related trend
half-life ([1]; blood, after 10 consecutive days of once daily dosing, 4-30 mg, read-out: mean elimination half-life): 12.4 to 15.8 h
Tmax ([1]; blood, after 10 consecutive days of once daily dosing, 4-30 mg): 3 to 4 h
half-life ([1]; blood, multiple-dose phase, first dose on Day 1, 4-30 mg, read-out: mean half-life): 10.1 to 19.4 h
Tmax ([1]; blood, multiple-dose phase, first dose on Day 1, 4-30 mg): 2 to 3 h
half-life ([1]; in vivo, single-dose phase, 1-50 mg, healthy volunteers, read-out: mean elimination half-life (t½)): 13.1 to 19.7 h
Tmax ([1]; in vivo, single-dose phase, 1-50 mg, healthy volunteers): 3 to 4.5 h
CLF [1, 4]: no apparent trend with dose
exposure (Cmax, AUC0-t, and AUC0-inf) [1, 4]: increased with dose
exposure (Cmax, AUC0-t, and AUC0-inf) ([1]; single-dose phase): increased in a dose-proportional manner
mean clearance (CL/F) ([1]; single-dose phase): no dose-related trend
Compound: O=C(O)CNC(=O)C1=C(O)C2(CCCC2)n2c(ccc2-c2ccccc2)C1=O [Comp-1, (6′-hydroxy-8′-oxo-3′-phenyl-8′H-spiro[cyclopentane-1,5′-indolizine]-7′-carbonyl)glycine]
mean rate of hemoglobin increase ([2]; 8 mg TIW): 0.2839 g/dL/week
mean rate of hemoglobin increase ([2]; 12 mg TIW): 0.3893 g/dL/week
mean rate of hemoglobin increase ([2]; 16 mg TIW): 0.4817 g/dL/week
mean level of hemoglobin ([2]; Week 14, pooled QW group): 10.09 g/dL
mean level of hemoglobin ([2]; Week 14, pooled TIW group): 10.74 g/dL
mean hemoglobin level ([2]; pooled QW group): 10.91 g/dL
mean hemoglobin level ([2]; pooled TIW group): 10.84 g/dL
change in hemoglobin from baseline ([2]; Weeks 6-14, pooled QW group): 1.78 g/dL
change in hemoglobin from baseline ([2]; Weeks 6-14, pooled TIW group): 1.71 g/dL
change in hemoglobin level from baseline ([2]; Weeks 10-14, pooled QW group): 1.63 g/dL
mean level of hemoglobin ([2]; Weeks 10-14, pooled QW group): 10.77 g/dL
change in hemoglobin level from baseline ([2]; Weeks 10-14, pooled TIW group): 1.60 g/dL
mean level of hemoglobin ([2]; Weeks 10-14, pooled TIW group): 10.73 g/dL
cumulative percentage of patients achieving target hemoglobin range 10.0-11.0 g/dL and increase of ≥1.0 g/dL from baseline ([2]; pooled QW group): 90%
cumulative percentage of patients achieving target hemoglobin range 10.0-11.0 g/dL and increase of ≥1.0 g/dL from baseline ([2]; pooled TIW group): 100%
TEAE, % of patients ([2]; Pooled QW, N = 20): 70.0%
TEAE, NE (total number of adverse events) ([2]; Pooled QW, N = 20): 18
TEAE, n (number of patients experiencing adverse events) ([2]; Pooled QW, N = 20): 14
Treatment-related TEAE, % of patients ([2]; Pooled QW, N = 20): 5.0%
Treatment-related TEAE, NE (total number of adverse events) ([2]; Pooled QW, N = 20): 1
Treatment-related TEAE, n (number of patients experiencing adverse events) ([2]; Pooled QW, N = 20): 1
TEAE, % of patients ([2]; Pooled TIW, N = 19): 73.7%
TEAE, NE (total number of adverse events) ([2]; Pooled TIW, N = 19): 39
TEAE, n (number of patients experiencing adverse events) ([2]; Pooled TIW, N = 19): 14
Treatment-related TEAE, % of patients ([2]; Pooled TIW, N = 19): 10.5%
Treatment-related TEAE, NE (total number of adverse events) ([2]; Pooled TIW, N = 19): 2
Treatment-related TEAE, n (number of patients experiencing adverse events) ([2]; Pooled TIW, N = 19): 2

— patent US20260199305A1, “LONG-ACTING ORAL PHARMACEUTICAL COMPRISING HYPOXIA-INDUCIBLE FACTOR PROLYL HYDROLASE INHIBITOR AND USE THEREOF” (Kind Pharmaceutical, priority 2023, published 2026)
